We go through two compounds from patent publication US20130165652A1, “NOVEL HETEROCYCLIC COMPOUND, AND COMPOSITION FOR TREATING INFLAMMATORY DISEASES USING SAME” (NEOPHARM CO.,LTD., priority 2010, published 2013).

Series [1] concerns the target T1, PAR-2 (Homo sapiens, UniProt P55085).
T1 sequence (P55085 26-397): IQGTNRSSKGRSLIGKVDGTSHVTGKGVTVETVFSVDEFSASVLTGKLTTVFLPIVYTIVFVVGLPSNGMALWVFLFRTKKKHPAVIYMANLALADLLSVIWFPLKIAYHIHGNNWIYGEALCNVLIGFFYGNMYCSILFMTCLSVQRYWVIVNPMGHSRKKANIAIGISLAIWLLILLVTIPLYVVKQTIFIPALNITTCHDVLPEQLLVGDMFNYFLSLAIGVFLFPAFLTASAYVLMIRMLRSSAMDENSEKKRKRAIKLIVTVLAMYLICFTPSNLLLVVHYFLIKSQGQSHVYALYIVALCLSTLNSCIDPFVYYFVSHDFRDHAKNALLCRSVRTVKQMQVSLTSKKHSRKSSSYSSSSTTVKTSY
The series can be described thus: Calcium immobilization assay (Calcium-4 assay kit). The series is classed as cell-based. To be noted: HCT-15 cells over-expressing PAR-2; activating peptide (AP) as PAR-2 activating agent; inhibitor treated for 5 minutes before AP. The method, then: In order to evaluate inhibitory activity of the synthesized materials against the PAR-2, primarily, an assay system in which a concentration of calcium ions in cell may be measured in real time was constructed, and evaluation was conducted using this system. The PAR-2 is a kind of G-protein coupled receptors (GPCR), and when the PAR-2 is activated in cell, phospholipase C-b (PLC-b) decomposes phosphatidylinositol 4,5-bisphosphate (PIP2) into inositol triphosphate (IP3) and diacyl glycerol (DAG) while being activated. IP3 generated at this time stimulates secretion of calcium ions in endoplasmic reticulum (ER), which is a storage of calcium ions in a cell, such that the concentration of calcium ions in the cell is increased. Based on an existing study result, an in vitro screening assay system capable of detecting a material capable of suppressing the concentration of calcium ions in the cell from being increased by activation of PAR-2 was constructed. As a PAR-2 activating agent, activating peptide (AP) was used, and as a reagent for detecting the concentration of calcium ion in the cell, a Calcium-4 assay kit produced (Molecular Probe). […]
The inhibitory activity of the synthesized materials against the PAR-2 was evaluated using the protocol as described above, and profiles of the assay for Compounds 45 and 73 prepared in Examples 1 and 2 were shown in FIGS. 1 and 2.

The nature of the next series: Cytotoxicity (CC50). Format: cell-based.
For series [2], the target named is T1, PAR-2. Description: Confocal microscopy of PAR-2 activation in KNRK-PAR-2 cell line. The series is classed as cell-based. To be noted: KNRK-PAR-2 cells; [trypsin]=11 μM, [SLIGKV]=100 μM, [Compound 45]=200 μM. The method, then:
In order to visually confirm the activation of the PAR-2, a cell line having the following structure was prepared based on existing references, and activation of the PAR-2 was observed using a confocal microscope. As the cell line, Kirsten Murine Sarcoma Virus transformed rat kidney epithelial cell (KNRK cell) was used. In this cell line, the PAR-2 may not be expressed in a normal state. Each of the N-terminals of […] were tagged with Flag epitope, and each of the C-terminals were tagged with Myc epitope, such that a stable transfected cell was constructed. […] In a state in which the PAR-2 was not activated, Flag and Myc were double stained, such that a yellow image was shown in a merged image. However, in the case in which the PAR-2 was activated, a red image was shown while the Flag is separated.

Series [3] deals with oxazolone induced chronic dermatitis. The series can be described thus: Oxazolone induced chronic dermatitis animal model. The series is classed as in vivo, hairless mouse (SKH-1). To be noted: hairless mice, applied once a day for 3 days. The protocol: Effects of the selected materials were evaluated using chronic dermatitis animal model. Oxazolone induced chronic dermatitis animal model by continuously applying oxazolone, which is a kind of hapten, to a hairless mouse was used. It was reported that various symptoms of atopic dermatitis relatively accurately appear in recently developed oxazolone model, and the present inventors also confirmed through the prior study that various symptoms of general atopic dermatitis appear similarly to clinically appearing symptoms. In order to construct the chronic dermatitis animal model, 5% oxazolone was applied and sensitized to the hairless mice (SKH-1, 6 weeks old). After 1 week, 0.1% oxazolone was applied every other day for 2 weeks, thereby induced the symptoms of dermatitis. After samples were applied to the dermatitis induced animal once a day for 3 days, changes in various skin functions and a skin thickness were observed. Finally, biopsy was performed on skin tissue, and histological observation was conducted. As a positive control group used in the experiment, 0.05% desonide formulation, which is a steroid having relatively weak potency, was used, and changes in trans-epidermal water loss (TEWL) skin hydration in stratum cornea, and skin thickness were observed.

For series [4], the target named is T1, PAR-2. Description: PathHunter β-arrestin GPCR assay. The arrangement: purchased DiscoveRx Corp. To be noted: β-arrestin accumulation; SKIGKV-NH2 (10 μM); samples 1000 to 50 μM. Format: cell-based. The method, then: An in vitro assay protocol capable of detecting activation of the PAR-2 was additionally introduced in addition to a calcium immobilization assay to measure the activity of the selected materials. First, the PAR-2 inhibitory activities of two kinds of samples were measured using a PathHunter™ β-arrestin GPCR assay kit (DiscoveRx Corp.) capable of detecting accumulation of β-arrestin, which is an intracellular reaction firstly generated by the activation of the PAR-2. Experiments were conducted by diluting concentrations of the samples by one-half, ranging from 1000 to 50 μM and SKIGKV-NH2 (10 μM) was treated with the PAR-2 […]. As an experimental result, suppression of β-arrestin was confirmed in both of the two kinds of samples at a concentration of 500 μM. As a measurement result, it was observed that IC50 values were different from those in calcium immobilization assay (See Table 1).

Each structure is given as a SMILES string.

As for `Cc1cccc(-c2c(C)nc3ccc(C(=O)N4CCCCC4)cn23)c1` [Compound 45], the figures for the IC50 at PAR-2 [1] and on PAR-2 [4] were 73.8 µM and 339 µM, respectively. This compound also came in with a half-maximal cytotoxic concentration (CC50) in “Cytotoxicity (CC50)” above 100 µM. On PAR-2 [2], the “activation of the PAR-2 (Flag/Myc double staining, merged image)” value is “activation of the PAR-2 was suppressed”. In addition, the “trans-epidermal water loss (TEWL)” value in series [3] (FIG. 5) is recorded as “effectively restore”. Besides, in series [3] (FIG. 6), the “skin hydration in stratum cornea” value was “effectively restore”. The skin thickness entry in series [3] (FIG. 7) is “statistically significant improvement effect”.
As to `Cc1nc2ccc(C(=O)N3CCN(C(=O)C4CCCCC4)CC3)cn2c1-c1ccccc1` [Compound 73, (4-(cyclohexanecarbonyl)piperazin-1-yl)(2-methyl-3-phenylimidazo[1,2-a]pyridin-6-yl)methanone], the values for the concentration for half-maximal inhibition (IC50) on PAR-2 [1] and against PAR-2 [4] were 76.7 µM and 401 µM, respectively. In the series “Cytotoxicity (CC50)”, this compound came in with a CC50 above 100 µM.
